Series [1] has as its system fixed activated platelets. The series is described as follows: Platelet Aggregation Assay (fixed-activated platelets, aggregation initiated by human fibrinogen). Format: cell-based. The settings on record: human fibrinogen 250 μg/mL, read-out: Inhibition of Fixed Platelet Aggregation (IC50 μM). The source says:
(§1) The Platelet Aggregation Assay is based on that described in Blood 66 (4), 946-952 (1985). The Fibrinogen-Binding Assay is essentially that of Ruggeri, Z. M., et al., Proc. Nail. Acad. Sci. USA 83, 5708-5712 (1986) and Plow, E. F., et al., Proc. Natl. Acad Sci., USA 82, 8057-8061 (1985). The Inhibition of ADP-lndticed ex-vivo Platelet Aggregation assay is based on that of Zucker, “Platelet Aggregation Measured by the Photoelectric Method”, Methods in Enzymology 169, 117-133 (1989).
Platelets are isolated from human platelet concentrates using the gel-filtration technique as described by Marguerie, G. A. et al., J. Biol. Chem. 254, 5357-5363 (1979) and Ruggeri, Z. M. et al., J. Clin. Invest. 72, 1-12 (1983). The platelets are suspended at a concentration of 2×10^8 cells/mL in a modified calcium-free Tyrode's buffer containing 127 mM sodium chloride, 2 mM magnesium chloride, 0.42 mM Na2HPO4, 11.9 mM NaHCO3, 2.9 mM KCl, 5.5 mM glucose, 10 mM HEPES, at a pH of 7.35 and 0.35% human serum albumin (HSA). […]
The fixed activated platelets are incubated with a selected dose of the compound to be tested for platelet aggregation inhibition for one minute andfaggregation initiated by addition of human fibrinogen to a final concentration of 250 μg/mL. […] The extent of inhibition of aggregation is expressed as the percentage of the rate of aggregation observed in the absence of inhibitor. […]

The subject of series [2] is ADP-induced platelet aggregation in platelet rich plasma. Nature of the series: Inhibition of ADP-Induced ex-vivo Platelet Aggregation after oral administration. It is filed as in vivo, mongrel dogs. The settings on record: dog, 5 mg/kg; for % Inhibition of ex-vivo Platelet Aggregation After Oral Administration, 1 h: 1 h after dosing; for % Inhibition of ex-vivo Platelet Aggregation After Oral Administration, 3 h: 3 h after dosing.
Excerpt: as §1
Control blood samples are obtained 5-10 minutes prior to administration of a test compound in mongrel dogs weighing from 10 to 20 Kg. The compound is administered intragasticly, via aqueous gavage, or orally, via gelatin capsule. Blood samples (5 ml) are then obtained at 30 minute intervals for 3 hours, and at 6, 12, and 24 hours after dosing. Each blood sample is obtained by venipuncture of the cephalic vein and is collected directly into a plastic syringe containing one part 3.8% trisodium citrate to nine parts blood.
The blood samples are centrifuged at 1000 rpm for 10 minutes to obtain platelet rich plasma (PRP). After removal of the PRP, the sample is centrifuged for an additional 10 minutes at 2000 rpm to obtain platelet poor plasma (PPP). Platelet count in the PRP is determined by using a Coulter Counter (Coulter Electronics, Hialeah, Fla.). If the concentration of platelets in the PRP is greater than 300,000 platelets/μL, then the PRP is diluted with PPP to adjust the platelet count to 300,000 platelets/μL. Aliquots of PRP (250 μL) are then placed in siliconized glass cuvettes (7.25×55 mm, Bio/Data Corp., Horsham, Pa.). Epinephrine (final concentration of 1 μM) is then added to the PRP, which is incubated for one minute at 37° C. A stimulator of platelet aggregation ADP at a final concentration of 10 μM, is then added to the PRP. Platelet aggregation is monitored spectrophotometrically utilizing a light transmission aggregometer (Bio/Data Platelet Aggregation Profiler, Model PAP-4, Bio/Data Corp., Horsham, Pa.). For the testing of a compound, the rate of change (slope) of light transmittance and the maximum light transmittance (maximum aggregation) is recorded in duplicate. Platelet aggregation data are reported as the percent decrease (mean±SEM) in slope or maximum aggregation as compared to data obtained from control PRP, which is prepared from blood samples obtained prior to administration of the test compound.

Series [3] in a line: Isothermal microcalorimetry of solid state form conversion (Thermal Activity Monitor). The settings on record: for thermal activity (form conversion) on exposure to humidity: 80% RH (saturated KCl solution), over 30 hours; for time for conversion of hygroscopic to non-hygroscopic form: 80% RH. It is filed as physicochemical. As to the method:
Isothermal microcalorimetry experiments on hygroscopic and non-hygroscopic crystalline forms of N-[N-[N-(4-piperdin-4-yl)butanoyl)-N-ethylglycyl]-(L)-aspartyl]-(L)-β-cyclohexylalanine amide are performed on a Thermometric® Thermal Activity Monitor (TAM). Solid state conversions of the different chrystalline forms are studied by exposing the forms to different humidities or solvent vapors at different temperatures. The saturated salt solutions used to obtain different humidities were: KCl (80% RH), NaCl (75% RH), and NaBr (65% RH). Approximately 100 mg quantities of the forms are weighed into a TAM glass ampule and a microhygrostate containing a saturated salt solution (with excess solid) or an organic solvent is placed inside the ampule. The ampule is sealed, equilibrated to the temperature of the experiment, and lowered into the measuring position in the TAM. An identical system containing washed sea sand, in place of the form subject to testing, is placed on the reference side. Output power (μW) is measured as a function of time (FIGS. 6-8).

Series [4] can be described thus: Moisture sorption isotherms (VTI MB300G moisture balance). It is filed as physicochemical. The settings on record: 25° C.; for desorption to original weight %: decreasing RH. The method, then: Moisture Sorption Isotherms of hygroscopic and non-hygroscopic crystalline forms of N-[N-[N-(4-piperdin-4-yl)butanoyl)-N-ethylglycyl]-(L)-aspartyl]-(L)-β-cyclohexylalanine amide are obtained on a VTI MB300G moisture balance. The experiments are conducted either by subjecting approximately 15 mg of the subject crystalline form to increasing and decreasing steps of % RH and following the weight gain (at each equilibrium step) as a function of % RH (FIG. 9) or by holding the subject crystalline form at constant humidity and following the weight gain as a function of time.

The nature of series [5]: Hygroscopicity and physical stability of the material prepared according to WO95/10295 (statement). Format: physicochemical.

Read-outs that look alike come from different tables or passages of the source.

As to `O=C(O)C[C@H](NC(=O)CNC(=O)CCCC1CCNCC1)C(=O)N[C@@H](Cc1c[nH]c2ccccc12)C(=O)O` [Compound of EPA ‘481, 4-4(piperidyl)butanoyl glycyl aspartyl tryptophan, reference compound], in series [1], the 50% inhibitory concentration (IC50) is 0.047 µM. In addition, in series [2], the “% Inhibition of ex-vivo Platelet Aggregation After Oral Administration, 1 h” value is 53% and the “% Inhibition of ex-vivo Platelet Aggregation After Oral Administration, 3 h” value is recorded as less than 20%.
For `CCN(CC(=O)N[C@@H](CC(=O)O)C(=O)N[C@@H](CC1CCCCC1)C(N)=O)C(=O)CCCC1CCNCC1` [hygroscopic crystalline form], the “effect of relative humidity on rate of conversion to non-hygroscopic form” value in series [3] (60° C., 65% RH, 75% RH, 80% RH and 100% RH) was “higher relative humidities produce a faster conversion”. Moreover, the “thermal activity (form conversion) on exposure to humidity” value in series [3] (40° C., listed as hygroscopic form) is “strong exothermic event takes place”. Further, the figures for the “time for conversion of hygroscopic to non-hygroscopic form” value in series [3] (40° C.), in series [3] (50° C.) and in series [3] (60° C.) were “approximately 24 hours”, approximately 6.5 h and approximately 3 h, respectively. Also, the liquification during conversion result in series [3] (100% RH, 60° C.) was “without the liquification”. In addition, the “thermal activity (form conversion) on exposure to methanol vapors” value in series [3] (methanol vapors, 40° C.) is “no exothermic conversion event takes place”. Further, the “desorption to original weight %” value in series [4] (listed as hygroscopic form) is given as “does not desorb to its original weight %”. Also, in series [4] (increasing RH, more pronounced above 60% RH), the “% weight gain vs. % RH (water uptake)” value is recorded as “picks up more water than the non-hygroscopic form as the RH increases”.
For `CCN(CC(=O)N[C@@H](CC(=O)O)C(=O)N[C@@H](CC1CCCCC1)C(N)=O)C(=O)CCCC1CCNCC1` [N-[N-[N-(4-(piperdin-4-yl)butanoyl)-N-ethylglycyl]-(L)-aspartyl]-(L)-β-cyclohexylalanine amide], in series [5], the “hygroscopicity and physical stability” value is “hygroscopic and is physically unstable as it absorbs moisture”.
As to `CCN(CC(=O)N[C@@H](CC(=O)O)C(=O)N[C@@H](CC1CCCCC1)C(N)=O)C(=O)CCCC1CCNCC1` [non-hygroscopic form], the “thermal activity (form conversion) on exposure to humidity” value in series [3] (40° C.) is reported as “no exothermic conversion event takes place”. Also, the “desorption to original weight %” value in series [4] was “does desorb to its original weight %”.
For `CCN(CC(=O)N[C@@H](CC(=O)O)C(=O)N[C@@H](CC1CCCCC1)C(N)=O)C(=O)CCCC1CCNCC1` [Example 15], in series [1] (Platelet), the IC50 is 0.097 µM. In series [2], the “% Inhibition of ex-vivo Platelet Aggregation After Oral Administration, 1 h” value was determined as 100% and the “% Inhibition of ex-vivo Platelet Aggregation After Oral Administration, 3 h” value is 100%. Moreover, the “% Inhibition of ex-vivo Platelet Aggregation After Oral Administration, 6 h” value in series [2] (6 h after dosing) stood at 100%. Also, the “% Inhibition of ex-vivo Platelet Aggregation After Oral Administration, 12 h” value in series [2] (12 h after dosing) was 98%. For the same compound, the “% Inhibition of ex-vivo Platelet Aggregation After Oral Administration, 24 h” value in series [2] (24 h after dosing) came out at 50%.

(Values after patent publication US6753409B1, “STABLE NON-HYGROSCOPIC CRYSTALLINE FORM OF N-[N-[N-(4-(PIPERIDIN-4-YL)BUTANOYL)-N-ETHYLGLYCYL]ASPARTYL]-L-β-CYCLOHEXYL ALANINE AMIDE, INTERMEDIATES THEREOF, AND PREPARATION THEREOF AND OF ANTITHROMBOTIC AZACYCLOALKYLALKANOYL PEPTIDES AND PSEUDOPEPTIDES” (Aventis Pharmaceuticals Inc., priority 1996, dated 2004).)
